From patent US20140047570A1, “ANIMAL MODEL OF HUMAN CANCER AND METHODS OF USE” (H. LEE MOFFITT CANCER CENTER AND RESEARCH INSTITUTE, INC., priority 2011, published 2014)

System: liver tumor of human pancreatic cancer
Experiment: Diffusion MRI analysis of tumor response to drug treatment in vivo (liver xenograft)
Conditions: human pancreatic cancer tumor implanted in mouse liver; intraperitoneally 1 mg/kg/d; before vs 24 hours after initiation of treatment; FIG. 4C
Source text: FIGS. 4A-D show MRI analysis to assess tumor response to drug treatment in vivo. To evaluate tumor response to treatment in vivo in addition to US imaging technologies such as MRI that utilizes anatomical MRI, diffusion MRI, spectroscopy and Dynamic Contrast Enhanced (DCE) MRI can be used. Of these, diffusion, spectroscopy and DCE show great promise in determining early response to drug treatment, even before changes in tumor volume are observed. Anatomical and diffusion MRI techniques were used on the same liver tumor of human pancreatic cancer before (FIG. 4A) and 24 hours after (FIG. 4B) the initiation of gemcitabine (intraperitoneally 1 mg/kg/d) treatment. […] Laparoscopy or laparotomy can be used to assess tumor growth and to harvest tumor cells in liver (FIG. 4D).

Nc1ccn([C@@H]2O[C@H](CO)[C@@H](O)C2(F)F)c(=O)n1 [gemcitabine]
tumor water diffusion by diffusion MRI (early response to drug treatment): right shift in tumor water diffusion
